Experimental data as given in patent US11731966B2, “Compounds and their methods of use” (Praxis Precision Medicines, Inc., priority 2017, dated 2023).

target: T1, human NaV1.6 (hNaV1.6) (Homo sapiens, UniProt Q9UQD0); test: Modulation of late (persistent) sodium current (INaL), PatchXpress electrophysiology, HEK-293 cells expressing hNaV1.6, ATX-II evoked; assay type: cell-based; conditions: 1 μM compound; HEK-293 cells expressing recombinant human NaV1.6; late current evoked by 300 nM ATX-II; steady-state inhibition
T1 construct: expressed in transfected cells; host or cells: HEK-293 (G418 selection)
Protocol: Functional characterization of exemplary compounds to modulate INaL expressed by the NaV16 voltage-gated sodium channel was accomplished using the PatchXpress™ high throughput electrophysiology platform (Molecular Devices, Sunnyvale, Calif.). HEK-293 cells expressing recombinant, human NaV1.6 (hNaV1.6) were grown in DMEM/high-glucose Dulbecco's modified, 10% FBS, 2 mM sodium pyruvate, 10 mM HEPES and 400 μg/mL G418. Cells were grown to 50%-80% confluency prior to harvesting. Trypsinized cells were washed, allowed to recover for 1 hour and then resuspended in extracellular recording solution at a concentration of 1×10^6 cells/ml. The onboard liquid handling facility of the PatchXpress was used for dispensing cells and applying test compounds. NaV late currents were evoked by the application of 300 nM ATX-II. INaL was evoked by depolarizing pulses to 0 mV for 200 ms from a non-inactivating holding potential (e.g., −120 mV) at a frequency of 0.1 Hz. INaL amplitude and stability were determined by analyzing the mean current amplitude over the final 20 ms of the test pulse. Following steady state block with exemplary compounds (e.g., as described herein), a Na^+ free solution containing an impermeant cation (e.g., Choline or NDMG) was added to confirm the identify of the sodium current. Percent steady-state inhibition of INaL was calculated as: [(INaL_compound)/(INaL_control)]*100, where INaL_compound and INaL_control represent INaL recorded in the presence or absence of compound, respectively.
In this table, “A” indicates inhibition of less than 30%; “B” indicates inhibition of between about 30% to about 70%; and “C” indicates inhibition of greater than 70%.

T1 sequence (Q9UQD0 whole entry): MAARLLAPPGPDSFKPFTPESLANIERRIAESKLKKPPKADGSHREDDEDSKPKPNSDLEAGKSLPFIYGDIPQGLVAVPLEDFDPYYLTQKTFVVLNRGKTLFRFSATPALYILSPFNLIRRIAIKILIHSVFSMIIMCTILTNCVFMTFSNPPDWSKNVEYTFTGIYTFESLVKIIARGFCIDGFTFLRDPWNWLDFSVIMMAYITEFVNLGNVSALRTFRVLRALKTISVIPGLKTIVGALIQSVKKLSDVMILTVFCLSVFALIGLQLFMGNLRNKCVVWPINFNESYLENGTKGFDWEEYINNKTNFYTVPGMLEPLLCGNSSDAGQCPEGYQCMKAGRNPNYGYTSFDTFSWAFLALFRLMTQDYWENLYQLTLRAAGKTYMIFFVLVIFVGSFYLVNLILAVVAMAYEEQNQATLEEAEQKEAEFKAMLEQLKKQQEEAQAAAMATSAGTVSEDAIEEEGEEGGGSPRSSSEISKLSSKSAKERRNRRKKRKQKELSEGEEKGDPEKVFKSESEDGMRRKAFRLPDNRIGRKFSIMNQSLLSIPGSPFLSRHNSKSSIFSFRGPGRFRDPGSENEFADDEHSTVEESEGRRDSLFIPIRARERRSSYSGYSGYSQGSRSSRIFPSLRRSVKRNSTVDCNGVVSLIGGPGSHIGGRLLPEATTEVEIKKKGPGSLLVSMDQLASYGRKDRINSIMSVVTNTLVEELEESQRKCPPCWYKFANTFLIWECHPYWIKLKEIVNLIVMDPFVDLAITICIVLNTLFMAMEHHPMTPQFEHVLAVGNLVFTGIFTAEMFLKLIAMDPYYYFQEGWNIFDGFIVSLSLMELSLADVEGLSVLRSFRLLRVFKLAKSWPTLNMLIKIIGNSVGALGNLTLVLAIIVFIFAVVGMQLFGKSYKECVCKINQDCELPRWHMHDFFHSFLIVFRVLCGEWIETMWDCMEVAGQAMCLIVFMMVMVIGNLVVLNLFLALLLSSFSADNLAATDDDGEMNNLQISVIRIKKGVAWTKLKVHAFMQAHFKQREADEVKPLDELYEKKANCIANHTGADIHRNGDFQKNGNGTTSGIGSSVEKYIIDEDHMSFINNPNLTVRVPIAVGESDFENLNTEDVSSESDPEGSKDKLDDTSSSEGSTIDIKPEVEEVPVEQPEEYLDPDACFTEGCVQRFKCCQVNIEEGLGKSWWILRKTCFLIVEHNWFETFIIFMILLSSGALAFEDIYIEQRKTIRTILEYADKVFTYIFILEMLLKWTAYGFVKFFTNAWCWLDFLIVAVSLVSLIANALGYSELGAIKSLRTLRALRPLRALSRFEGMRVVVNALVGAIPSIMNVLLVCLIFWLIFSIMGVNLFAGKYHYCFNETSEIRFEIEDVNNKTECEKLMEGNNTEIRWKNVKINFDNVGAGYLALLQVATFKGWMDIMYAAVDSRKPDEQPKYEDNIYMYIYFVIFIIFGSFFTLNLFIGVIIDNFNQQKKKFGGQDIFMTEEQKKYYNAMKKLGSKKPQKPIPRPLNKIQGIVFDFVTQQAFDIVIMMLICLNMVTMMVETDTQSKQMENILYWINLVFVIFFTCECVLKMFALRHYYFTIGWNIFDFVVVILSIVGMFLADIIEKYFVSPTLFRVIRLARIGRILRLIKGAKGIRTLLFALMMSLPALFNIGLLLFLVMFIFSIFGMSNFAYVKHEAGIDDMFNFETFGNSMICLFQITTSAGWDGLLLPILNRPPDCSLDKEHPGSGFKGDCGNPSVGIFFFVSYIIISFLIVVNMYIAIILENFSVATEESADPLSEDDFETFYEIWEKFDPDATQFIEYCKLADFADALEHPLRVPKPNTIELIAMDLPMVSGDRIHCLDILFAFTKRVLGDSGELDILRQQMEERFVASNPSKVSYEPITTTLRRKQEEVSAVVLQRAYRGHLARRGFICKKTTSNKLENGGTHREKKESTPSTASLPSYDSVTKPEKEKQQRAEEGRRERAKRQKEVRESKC

| Structure (SMILES) | INaL hNaV1.6 (1 μM, % inhibition) |
| --- | --- |
| Cc1nnc(CCn2nnc3ccc(-c4ccc(OC(F)(F)F)cc4)cc32)o1 [Compound 15] | B (inhibition of between about 30% to about 70%) |
| COc1cc(OC(F)(F)F)ccc1-c1ccc2nnn(CC(F)(F)F)c2n1 [Compound 17] | C (inhibition of greater than 70%) |
| FC(F)(F)COc1ccc(-c2ccc3nnn(CC(F)(F)F)c3c2)cn1 [Compound 12] | B (inhibition of between about 30% to about 70%) |
| COc1cc(OC(F)(F)F)ccc1-c1ccc2nnn(CC(F)(F)F)c2c1 [Compound 11] | A (inhibition of less than 30%) |
| FC(F)(F)Cn1nnc2cnc(-c3ccc(OC(F)(F)F)cc3)cc21 [Compound 20] | A (inhibition of less than 30%) |
| Cn1nnc2ccc(-c3ccc(OC(F)(F)F)cc3)cc21 [Compound 8] | B (inhibition of between about 30% to about 70%) |
| FC(F)(F)Cn1nnc2ccc(-c3ccc(OC4CC(F)(F)C4)cc3)cc21 [Compound 14] | B (inhibition of between about 30% to about 70%) |
| FC(F)(F)Cn1nnc2ccc(-c3ccc(OC4CC(F)(F)C4)nc3)cc21 [Compound 10] | A (inhibition of less than 30%) |
| COCc1cc(OC(F)(F)F)ccc1-c1ccc2nnn(CC(F)(F)F)c2n1 [Compound 18] | C (inhibition of greater than 70%) |

same assay, conditions: HEK293; 1 μM compound; HEK-293 cells expressing recombinant human NaV1.6; late current evoked by 300 nM ATX-II; steady-state inhibition

| Structure (SMILES) | inhibition at 1 µM [%] |
| --- | --- |
| FC(F)Cn1nnc2ccc(-c3ccc(OC(F)(F)F)cc3)cc21 [Compound 13] | < 30 |
| FC(F)(F)Oc1ccc(-c2ccc3nn[nH]c3c2)cc1 [Compound 7] | < 30 |
| FC(F)(F)Cn1nnc2cnc(-c3ccc(OC(F)(F)F)cc3)nc21 [Compound 19] | < 30 |
| Cc1nnc(CCn2nnc3ccc(-c4ccc(OC(F)(F)F)cc4)nc32)o1 [Compound 9] | 30 to 70 |
| COCCn1nnc2ccc(-c3ccc(OC(F)(F)F)cc3)cc21 [Compound 16] | 30 to 70 |
| FC(F)(F)Cn1nnc2ccc(-c3ccc(OC(F)(F)F)cc3)nc21 [Compound 1] | 30 to 70 |
| FC(F)(F)Cn1nnc2ccc(-c3ccc(OC(F)(F)F)cc3)cc21 [Compound 2] | > 70 |
| FC(F)(F)Cn1nnc2ncc(-c3ccc(OC(F)(F)F)cc3)cc21 [Compound 21] | < 30 |
| CCn1nnc2ccc(-c3ccc(OC(F)(F)F)cc3)cc21 [Compound 6] | 30 to 70 |
| N#CC1(c2ccc(-c3ccc4nnn(CC(F)(F)F)c4c3)cc2)CC1 [Compound 5] | < 30 |
| COCc1cc(OC(F)(F)F)ccc1-c1ccc2nnn(CC(F)(F)F)c2c1 [Compound 4] | 30 to 70 |
